Measured values: patent publication US6949553B2, “Aliphatic compounds, their synthesis method, and utilization of the same” (Maruha Corporation, priority 2001, dated 2005)
Like-named read-outs stand apart in the source and are kept apart here.

Key:
platelets = experiment: Collagen-induced in vitro platelet aggregation (rabbit PRP, transmittance); type: cell-based; details: Oryctolagus cuniculus, Platelet, read-out: 50% Inhibition Point for Platelet Aggregation, IC50
Method: Collagen-induced in vitro Platelet Aggregation
It was studied whether the compounds of the present invention would inhibit platelet aggregation induced by collagen.
These compounds were each diluted with physiological saline to end concentrations of 1×10^−7M, 3×10^−7M, 1×10^−6M, 3×10^−6M, 1×10^−5M, 3×10^−5M and 1×10^−4M.
Indomethacin was used as a positive control. Indomethacin was dissolved in methanol, and then diluted with physiological saline to end concentrations of 1×10^−6M, 3×10^−6M and 1×10^−5M.
Physiological saline was used as a negative control.
The tube was centrifuged at 900 rpm for 10 minutes at room temperature to separate the supernatant (PRP, platelet rich plasma fraction). The residue was further centrifuged for 15 minutes at 2,500 rpm to obtain the supernatant (PPP, platelet poor plasma fraction).
PPP (platelet poor plasma fraction) was placed in a cuvette, and the cuvette was mounted in a 37° C. incubator for PPP of an aggregometer (Hematracer 240 12ch, manufactured by MCM). Then, 200 μl of PRP (platelet rich plasma fraction) was added into a cuvette, and the cuvette was mounted in a reactor for PRP. With stirring by a magnetic stirrer, the transmittance of PPP was corrected to T650 nm=100%, and the transmittance of PRP was corrected to T650 nm=0%, by automatic adjustment for 30 seconds.
The study substance (20 μl) at a predetermined concentration was added into the cuvette and, 30 seconds later, 20 μl (end concentration 0.2 μg/ml) of collagen (produced by MCM) was added. Subsequent changes in the transmittance were recorded for 5 minutes. When the platelets are aggregated, the transmittance increases. When aggregation peaked, the transmittance T at maximum aggregation was compared with the transmittance T0 of the negative control, and the aggregation inhibition rate was expressed as percentage using the following equation: Aggregation inhibition rate=(1−T/T0)×100
From an aggregation inhibition curve obtained, a regression equation was derived by approximation of the linear type.

human platelets = experiment: Human in vitro platelet aggregation; type: cell-based; details: read-out: 50% inhibition point, IC50, against human in vitro platelet aggregation
Method: From each of the large brachial veins of human volunteers, 10 ml of blood per person was drawn using an 18G syringe needle. The blood was gently dropped into a 15 ml Falcon tube containing 1 ml of 3.8% sodium citrate (Citral, Yamanouchi Pharmaceutical). A stopper for the tube was closed, and slowly inverted for mixing. Then, the blood was centrifuged at 900 rpm for 10 minutes at room temperature to separate the supernatant (platelet rich fraction, platelet rich plasma, PRP). The residue was further centrifuged for 15 minutes at 2,500 rpm to obtain the supernatant (platelet poor fraction, platelet poor plasma, PPP). The platelet density of PRP was measured with a blood cell counter (Sysmex), and diluted with PPP to adjust the platelet density to 300,000 platelets/μl.
Preparation of aggregation inducers was performed in the same manner as described earlier.
For each experiment, the doses of the inducers were so set as to obtain best evaluation of the action of the study substance. That is, the concentration of each inducer at which aggregation would clearly develop in the presence of a negative control (physiological saline) but would not excessive was set for each experiment.
If aggregation is induced by high concentration ADP or high concentration epinephrine, on the other hand, primary aggregation takes place, and then secondary aggregation proceeds again, under the action, as a trigger, of alpha granules (PDGF, serotonin, ADP, etc.) liberated from activated platelets. In the present study, the effect of the study substance on secondary aggregation due to ADP or epinephrine was also investigated.
Serotonin, when used alone, minimally causes platelet aggregation. Thus, a combination of serotonin and collagen, or a combination of serotonin and ADP was used as the inducer. […] For example, if serotonin used alone induced aggregation at a dose of 1 mM, but induced little aggregation at a dose of 0.5 mM, and if ADP alone induced aggregation at a dose of 0.25 mM, but induced no aggregation at a dose of 0.11 mM, then the doses, 0.25 mM serotonin+0.05 mM ADP, were set.
Compound 2 was used as the study substance, and the preparation of the inducers was performed in the same manner as described earlier.
The measurement of the transmittance was carried out in the same manner as described earlier.

mice = experiment: Collagen-induced mouse sudden death model; type: in vivo; details: 30 μg/kg intravenous 1 hour before 37.5 mg/kg collagen; survival one hour later
Method: As a preliminary study of the effect of the compounds of the present invention on an in vivo pathophysiological model, it was investigated whether the compound of the present invention would suppress collagen-induced mouse sudden death. In this model, pulmonary capillaries are obstructed by a large amount of collagen, and a sudden death is caused by oxygen deficiency.
One hour after a solvent (physiological saline) or 30 μg/kg of Compound 2 was intravenously administered to mice, 37.5 mg/kg of collagen was administered to the caudal vein. One hour later, the survival rate was compared between the groups.

[1] = tested on: rat lauric acid-induced leg necrosis; experiment: Rat lauric acid-induced peripheral circulatory disorder model (leg necrosis score); type: in vivo; details: for leg necrosis score (in words): iv once daily 14 days, 10, 30 or 100 μg/kg; for alleviation of the disorder (in words): prior administration
Method: A rat lauric acid-induced peripheral circulatory disorder model, which is widely used as a peripheral circulatory disorder model, was used to investigate the effect of the compounds of the present invention on an in vivo pathophysiological model of circulatory disorder.
Lauric acid (1.5 mg/animal) was administered into the rat femoral artery to induce leg necrosis.
A solvent (physiological saline) was administered as a control.
The progress of foot/leg lesions was observed 3, 7, 10 and 14 days after lauric acid administration, and evaluated by the following leg necrosis score. The score was given to each of the digits, and the sum of the scores of the respective digits was taken as a lesion index. If the disorder extended to the plantar portion, 5 points were further added.
Score 1: Blackening is limited to the tiptoe.
Score 2: Blackening extends to the digital portion.
Score 3: Necrosis of the digit.
Score 4: Loss of the digit.
A solvent (physiological saline) was similarly administered as a control.
The progress of foot/leg lesions was observed 3, 7, 10 and 14 days after lauric acid administration, and evaluated by the above leg necrosis score.
A test was conducted in the same manner as in (2) above.

[2] = tested on: neutrophils and vascular endothelial cells; experiment: Pseudo-blood vessel in vitro inflammation model (TNFα, neutrophil migration through endothelial cell layer); type: cell-based, bovine; details: 30, 3 or 0.3 μM, TNFα 50 ng/ml
Method: A layer of bovine endothelial cells was adhered to the bottom surface of the membrane, and cultured for 80 minutes at 37° C. in 5% CO2. Then, a suspension of fluorescence-labeled neutrophils was added to the upper chamber of the transwell. Simultaneously, TNFα was suspended in the cell suspension in the upper chamber to an end concentration of 50, 25 or 17 ng/ml.
That is, in the above model, the phenomena that neutrophils pass from the upper chamber through the vascular endothelial cell layer into the lower chamber, and neutrophils adhere to the endothelial cell layer mimic a state where in response to TNFα within the blood vessel, neutrophils migrate from within the blood vessel to the site of inflammation.
In the same manner as described above, the number of neutrophils passing from the upper chamber through the vascular endothelial cell layer into the lower chamber, and the number of neutrophils adhering to the endothelial cell layer were measured. Based on these numbers, the neutrophil migration rate (%) was calculated. The neutrophil migration rate was expressed as the relative value (%) of the number of the migrating neutrophils in the drug treatment group with respect to the number of the migrating neutrophils in the negative control group (physiological saline).

With `CC/C=C\C/C=C\C/C=C\C/C=C\C/C=C\C/C=C\CCC(=O)NCCC1CCCN1C` (racemic) [Compound 2, (4Z,7Z,10Z,13Z,16Z,19Z)-N-[2-(1-methylpyrrolidin-2-yl)ethyl]docosahexaenoamide] the IC50 (platelets) was 1500 nM, the IC50 (human platelets; inducer ADP (0.5˜1) μM, primary aggregation) was 30 µM and the IC50 (human platelets; inducer ADP (1˜2.5) μM, secondary aggregation) was 0.57 µM. It also gave an IC50 (human platelets; inducer Arachidonic acid (1˜2) μM) of 80 µM, an IC50 (human platelets; inducer Collagen (0.075˜0.25) μg/ml) of 13 µM and an IC50 (human platelets; inducer Epinephrine 1 μM, primary aggregation) of 33 µM. For the same compound, the IC50 (human platelets; inducer Epinephrine (1˜3) μM, secondary aggregation) was 2.7 µM, the IC50 (human platelets; inducer Serotonin + Collagen, (0.25˜0.5) μM + (0.05˜0.2) μg/ml) was 15 µM and the IC50 (human platelets; inducer Thrombin (0.2˜0.25) U/ml) was 57 µM. The IC50 (human platelets; inducer U46619 (pseudo-thromboxane A2) (5˜10) μM) was 53 µM, the Survival rate (mice) was 7/10 and the “leg necrosis score (in words)” value ([1]; administration after induction: first dose 6 hours after lauric acid) was “improve the leg necrosis score dose-dependently”. The “leg necrosis score (in words)” value ([1]; administration started 1 hour before lauric acid) was “improve the leg necrosis score dose-dependently”, the “alleviation of the disorder (in words)” value ([1]; dose of 10 μg/kg) was “tended to alleviate the disorder” and the “alleviation of the disorder (in words)” value ([1]; doses of 30 and 100 μg/kg) was “alleviated the disorder significantly”. The “neutrophil passage through vascular endothelial cell layer (in words)” value [2] was “suppressed neutrophil passage dose-dependently”.
